Patent publication US7094869B2, “Low molecular weight peptidomimetic growth hormone secretagogues” (Genentech, Inc., priority 1994, dated 2006)
Non-standard residues stand in square brackets, D forms with d. Residues, ends and D or L forms follow the SMILES beside them. *: point of attachment. Tyr(3-I) = N[C@@H](Cc1ccc(O)c(I)c1)C(=O)O; dNMe2Nal = CN[C@H](Cc1ccc2ccccc2c1)C(=O)O; 2Nal = N[C@@H](Cc1ccc2ccccc2c1)C(=O)O; d2Nal = N[C@H](Cc1ccc2ccccc2c1)C(=O)O; Acetyl(4-pyridyl) = O=C(Cc1ccncc1)*; d(hPhe) = N[C@H](CCc1ccccc1)C(=O)O; NMeF = CN[C@@H](Cc1ccccc1)C(=O)O; dPhg = N[C@@H](C(=O)O)c1ccccc1; dNle = CCCC[C@@H](N)C(=O)O; dOrn = NCCC[C@@H](N)C(=O)O; Ac6c = NC1(C(=O)O)CCCCC1; Inp = O=C(O)C1CCNCC1; Ava = NCCCCC(=O)O

What follows are molecules tested against rat pituitary cells (Rattus norvegicus, UniProt O08725). Details: not given.
Chain of rat pituitary cells (O08725 whole entry, the tested form may be a part): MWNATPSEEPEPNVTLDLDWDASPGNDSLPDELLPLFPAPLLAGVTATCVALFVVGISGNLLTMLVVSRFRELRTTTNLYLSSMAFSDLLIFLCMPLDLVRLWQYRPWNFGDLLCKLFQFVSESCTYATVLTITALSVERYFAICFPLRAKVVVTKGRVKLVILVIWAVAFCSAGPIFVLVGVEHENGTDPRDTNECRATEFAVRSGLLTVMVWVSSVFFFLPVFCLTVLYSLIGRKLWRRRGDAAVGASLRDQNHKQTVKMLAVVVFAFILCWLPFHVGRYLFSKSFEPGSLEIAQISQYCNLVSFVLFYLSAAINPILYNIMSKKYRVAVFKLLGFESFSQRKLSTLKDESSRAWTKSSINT
Description: Pituitaries from ten rats were removed, the posterior pituitary discarded and the anterior pituitary placed in Hanks' Balanced Salt Solution (HBSS: without calcium chloride, w/o magnesium chloride, w/o magnesium sulfate; Gibco) containing 20 mM HEPES (Gibco) and 100 U/ml penicillin streptomycin (PS: JRH Biosciences). Under sterile conditions, pituitaries were rinsed twice then minced into small fragments with a razor blade. […] After the incubation, fragments were triturated to yield small clumps and single cells. The cells were centrifuged 1000× g for 5 min, resuspended, counted and plated at a final cell concentration of 100,000 cells/ml. Incubation media was DME low glucose media w/NaHCO3 (Gibco) containing 20 mM hepes, 100 U/ml PS and 10% FBS (Hyclone A-111-L). Cells were plated at 0.5 ml per well in 48 well plates (Falcon) and incubated at 37° C. in 5% C02 for three days. For challenges to determine release of other pituitary hormones cells were plated at 200,000 cells per ml with 2 ml per well of a Swell plate (Corning). Challenge: A (inip)bbFK-NH2 stock (or other GHRP) concentration of 1 mM was made in DMSO and diluted with warmed media approximately 30 min prior to use. The highest concentration of DMSO in media was 0.1%. Stock solutions (1 mM) of rat GHRH, somatostatin (Sigma) and GHRP antagonist HwkWfK were made fresh in media and diluted appropriately. The media used in all challenges and washing steps was DME low glucose with 20 mM Hepes, 100 U/ml PS, 10% FBS. Media was warmed to 37° C. and gassed by placing it into the incubator prior to challenge. On day three, the media was discarded and fresh media (approximately 1 ml) added for the first of three washes. After the last wash, the plate was placed back in the incubator for a 15 min pre-incubation. Then cells were washed 2× (with warmed and gassed media) and fresh 0.5 ml media were added for the second 15 min. pre-incubation. After the second pre-incubation cells were washed 2× as above and 0.5 ml of control and test solutions were added for a final 15 min incubation. After this incubation, the media were removed for subsequent GH ELISA. GH ELISA: A two-site ELISA was used to determine rat GH concentration in the media. […] After blocking and washing, standard (rat GH reference preparation: Parlow) and challenge media is diluted 1:20 prior to GH assay were added for a 1 hr room temperature incubation. STATISTICS: The mean for each group was determined and analyzed by one-way analysis of variance with a post-hoc Student-Newman-Keuls. Significance is defined as P<0.05. The EC50 was calculated using a 4-parameter curve-fit program (Kaleidagraph). Three to four independent EC50s were used to derive the mean and SEM. RIA of pituitary hormones: LH, FSH, TSH, and Prolactin were determined with commercially available kits from Amersham, and ACTH levels were determined by a RIA kit from ICN. CALCIUM FLUX EXPERIMENT: Pituitary cells were plated on fibronectin (Collaborative Research) coated two-chambered slide wells (Nunc). After four days in monolayer culture cells were rinsed three times with HBSS (Gibco) in 1% BSA and 15 mM HEPES and then incubated for 30 min at 37° C. with 5 μM Indo-1 AM (Molecular Probes, Eugene) in HBSS also containing 1% pluronic F127 (Molecular Probes). The cells were rinsed once and fresh media added for RT incubation. […] C^++ flux was imaged with a Meridian ACAS 570 using stage scanning at 21 second intervals.

**Q.** How did the EC50 turn out when NCCCC[C@H](NC(=O)[C@H](Cc1ccccc1)NC(=O)[C@@H](Cc1c[nH]c2ccccc12)NC(=O)[C@@H](Cc1c[nH]c2ccccc12)NC(=O)[C@@H](N)Cc1ccc(O)cc1)C(N)=O [Y w w F K amide] (H-Y[dW][dW]FK-NH2) was run?
**A.** 1000 nM

**Q.** NC(=O)[C@H](Cc1ccccc1)NC(=O)[C@@H](Cc1c[nH]c2ccccc12)NC(=O)[C@@H](Cc1c[nH]c2ccccc12)NC(=O)[C@@H](N)Cc1ccc(O)cc1 [Y w w F amide, reference compound] (H-Y[dW][dW]F-NH2) was tested. Which EC50 did it give?
**A.** 1000 nM

Same assay, conditions: read-out: PIT Cell EC50; Table III, formula IV compounds; GH release, 15 min incubation

**Q.** For NCCCC[C@H](NC(=O)[C@H](Cc1ccc(O)cc1)NC(=O)[C@@H](Cc1ccc2ccccc2c1)NC(=O)[C@@H](Cc1ccc2ccccc2c1)NC(=O)C1CCNCC1)C(N)=O [(inip) b b Y K amide] (H-[Inp][d2Nal][d2Nal]YK-NH2), which EC50 is on record?
**A.** 0.2 nM

**Q.** Which EC50 does the source give for CN(C(=O)[C@@H](Cc1c[nH]c2ccccc12)NC(=O)[C@@H](Cc1c[nH]c2ccccc12)NC(=O)[C@@H](N)Cc1c[nH]cn1)[C@@H](Cc1ccccc1)C(=O)N[C@@H](CCCCN)C(N)=O [H w w nmF K amide] (H-H[dW][dW][NMeF]K-NH2) here?
**A.** 37.3 nM

**Q.** How did the EC50 turn out when NCCCCC(=O)N[C@H](Cc1ccc2ccccc2c1)C(=O)N[C@H](Cc1ccc2ccccc2c1)C(=O)N[C@@H](C(=O)N[C@@H](CCCCN)C(N)=O)c1ccccc1 [(Ava) b b (pG) K amide] (H-[Ava][d2Nal][d2Nal][dPhg]K-NH2) was run?
**A.** > 100 nM

**Q.** With NCCCC[C@H](NC(=O)[C@H](Cc1ccccc1)NC(=O)[C@@H](Cc1ccc2ccccc2c1)NC(=O)[C@@H](Cc1ccc2ccccc2c1)NC(=O)Cc1ccncc1)C(N)=O [(pac) b b F K amide] ({Acetyl(4-pyridyl)}-[d2Nal][d2Nal]FK-NH2) as the molecule, how does the EC50 read?
**A.** 100 nM

**Q.** How did the EC50 turn out when CN(C(=O)C1CCNCC1)[C@H](Cc1ccc2ccccc2c1)C(=O)N(C)[C@H](Cc1ccc2ccccc2c1)C(=O)N[C@@H](Cc1ccccc1)C(=O)N[C@@H](CCCCN)C(N)=O [(inip) nmb nmb F K amide] (H-[Inp][dNMe2Nal][dNMe2Nal]FK-NH2) was run?
**A.** 1.4 nM

**Q.** How did the EC50 turn out when CN(C)C(=O)C(Cc1ccccc1)NC(=O)[C@@H](Cc1ccc2ccccc2c1)NC(=O)[C@@H](Cc1ccc2ccccc2c1)NC(=O)C1CCNCC1 (single isomer, unassigned) [(inip) b b f dam] was run?
**A.** 12 nM

**Q.** Which EC50 does the source give for CNC(=O)[C@@H](Cc1ccccc1)NC(=O)[C@@H](Cc1ccc2ccccc2c1)NC(=O)[C@@H](Cc1ccc2ccccc2c1)NC(=O)C1CCNCC1 [(inip) b b f mam] (H-[Inp][d2Nal][d2Nal][dF]-NHMe) here?
**A.** 7 nM

**Q.** Which EC50 does the source give for CN(C)C(=O)[C@H](Cc1ccccc1)NC(=O)[C@@H](Cc1ccc2ccccc2c1)NC(=O)[C@@H](Cc1ccc2ccccc2c1)N(C)C(=O)C1CCNCC1 [(inip) nmb b F dam] (H-[Inp][dNMe2Nal][d2Nal]F-NMe2) here?
**A.** 6 nM

**Q.** NCCCC[C@H](NC(=O)[C@H](Cc1ccccc1)NC(=O)[C@@H](Cc1ccc2ccccc2c1)NC(=O)[C@@H](Cc1ccc2ccccc2c1)NC(=O)C1CCNCC1)C(=O)N[C@@H](Cc1ccc(O)c(I)c1)C(N)=O [(inip) b b F K Y(I) amide] (H-[Inp][d2Nal][d2Nal]FK[Tyr(3-I)]-NH2) was tested. Which EC50 did it give?
**A.** 0.69 nM

**Q.** With C[C@H](NC(=O)[C@@H](Cc1ccc2ccccc2c1)NC(=O)[C@@H](Cc1ccc2ccccc2c1)NC(=O)CCCCN)C(=O)N[C@@H](CCCCN)C(N)=O [(Ava) b b A K amide] (H-[Ava][d2Nal][d2Nal]AK-NH2) as the molecule, how does the EC50 read?
**A.** > 150 nM

Same assay, conditions: read-out: PIT Cell EC50; Table IV, formula III compounds; GH release, 15 min incubation

**Q.** Which EC50 does the source give for NCCC[C@@H](NC(=O)[C@@H](Cc1ccc2ccccc2c1)NC(=O)[C@@H](Cc1ccc2ccccc2c1)NC(=O)C1CCNCC1)C(N)=O [(inip) b b o amide] (H-[Inp][d2Nal][d2Nal][dOrn]-NH2) here?
**A.** 10 nM

**Q.** With NC1CCN(C(=O)[C@@H](Cc2ccc3ccccc3c2)NC(=O)[C@@H](Cc2ccc3ccccc3c2)NC(=O)C2CCNCC2)CC1 [(inip) b b apc] as the molecule, how does the EC50 read?
**A.** 39 nM

**Q.** With O=C(N[C@H](Cc1ccc2ccccc2c1)C(=O)N[C@H](Cc1ccc2ccccc2c1)C(=O)N[C@@H](Cc1ccc(O)c(I)c1)C(=O)O)C1CCNCC1 [(inip) b b Y(I) acid, (inip)-DβNal-DβNal-(3-I-Tyr)] (H-[Inp][d2Nal][d2Nal][Tyr(3-I)]-OH) as the molecule, how does the EC50 read?
**A.** 0.1 nM

**Q.** Which EC50 does the source give for NC(=O)[C@H](Cc1ccccc1)NC(=O)[C@@H](Cc1ccc2ccccc2c1)NC(=O)[C@@H](CCc1ccccc1)NC(=O)C1CCNCC1 [(inip) hf b F amide] (H-[Inp][d(hPhe)][d2Nal]F-NH2) here?
**A.** 27 nM

**Q.** With NCCCCCNC(=O)[C@@H](Cc1ccc2ccccc2c1)NC(=O)[C@@H](Cc1ccc2ccccc2c1)NC(=O)C1CCNCC1 [(inip) b b pam] as the molecule, how does the EC50 read?
**A.** 43 nM

**Q.** With CCCC[C@@H](NC(=O)C1CCNCC1)C(=O)N[C@H](Cc1ccc2ccccc2c1)C(=O)N[C@@H](Cc1ccccc1)C(N)=O [(inip) nl b F amide] (H-[Inp][dNle][d2Nal]F-NH2) as the molecule, how does the EC50 read?
**A.** 101 nM

**Q.** How did the EC50 turn out when NCCCCC(=O)N[C@H](Cc1ccc2ccccc2c1)C(=O)N[C@@H](Cc1ccccc1)C(=O)N[C@@H](CCCCN)C(N)=O [(Ava) b F K amide] (H-[Ava][d2Nal]FK-NH2) was run?
**A.** > 300 nM

**Q.** NC(=O)[C@H](Cc1ccccc1)NC(=O)[C@@H](CCc1ccccc1)NC(=O)[C@@H](CCc1ccccc1)NC(=O)C1CCNCC1 [(inip) hf hf F amide] (H-[Inp][d(hPhe)][d(hPhe)]F-NH2) was tested. Which EC50 did it give?
**A.** > 1000 nM

**Q.** With NC(=O)[C@H](Cc1ccccc1)NC(=O)C1(NC(=O)[C@@H](Cc2ccc3ccccc3c2)NC(=O)C2CCNCC2)CCCCC1 [(inip) b Abx F amide] (H-[Inp][d2Nal][Ac6c]F-NH2) as the molecule, how does the EC50 read?
**A.** > 100 nM

Same assay, conditions: read-out: PIT Cell EC50; Table V, formula II compounds; GH release, 15 min incubation

**Q.** How did the EC50 turn out when NC(=O)[C@@H](Cc1ccc2ccccc2c1)NC(=O)[C@@H](Cc1ccc2ccccc2c1)NC(=O)C1CCNCC1 [(inip) b b amide] (H-[Inp]-[d2Nal]-[d2Nal]-NH2) was run?
**A.** 17.6 nM

**Q.** For CC(=O)NC[C@@H](Cc1ccc2ccccc2c1)N(C)C(=O)[C@@H](Cc1ccc2ccccc2c1)NC(=O)C1CCNCC1 [(inip) b mbm Ac], which EC50 is on record?
**A.** 90 nM

**Q.** For CN(C(=O)[C@@H](Cc1ccc2ccccc2c1)NC(=O)C1CCN(C(=O)OC(C)(C)C)CC1)[C@@H](CN)Cc1ccc2ccccc2c1 [Boc (inip) b mbm], which EC50 is on record?
**A.** 13 nM

**Q.** Which EC50 does the source give for O=C(N[C@H](Cc1ccc2ccccc2c1)C(=O)N[C@H](CO)Cc1ccc2ccccc2c1)C1CCNCC1 [(inip) b Bol] here?
**A.** 100 nM

**Q.** Which EC50 does the source give for NCCCCC(=O)N[C@H](Cc1ccc2ccccc2c1)C(=O)N[C@@H](CO)Cc1ccc2ccccc2c1 [(Ava) b bol] here?
**A.** 190 nM

**Q.** Which EC50 does the source give for CN(C(=O)[C@@H](Cc1ccc2ccccc2c1)NC(=O)C1CCNCC1)[C@@H](CN=[N+]=[N-])Cc1ccc2ccccc2c1 [(inip) b miz] here?
**A.** 12 nM

Same assay, conditions: read-out: PIT Cell EC50; Table VI, retroinverso compounds of formula V; GH release, 15 min incubation

**Q.** How did the EC50 turn out when O=C(N[C@@H](Cc1ccc2ccccc2c1)C(=O)N[C@@H](Cc1ccc2ccccc2c1)C(=O)NC1CCNCC1)C1CCNCC1 [(inip) B B api] was run?
**A.** 96 nM

**Q.** How did the EC50 turn out when NCCCCC(=O)N[C@H](Cc1ccccc1)C(=O)N[C@@H](Cc1ccc2ccccc2c1)C(=O)N[C@@H](Cc1ccc2ccccc2c1)C(=O)N[C@@H](CCCCN)C(N)=O [(Ava) f B B K amide, (5-Aminovaleryl)-DPhe-βNal-βNal-Lys-amide] (H-[Ava][dF][2Nal][2Nal]K-NH2) was run?
**A.** 36 nM

Same assay, conditions: read-out: mean EC50; mean ± SE of independent EC50s

**Q.** With NCCCNC(=O)[C@H](Cc1ccc2ccccc2c1)NC(=O)[C@H](Cc1ccc2ccccc2c1)NC(=O)[C@@H](Cc1ccc2ccccc2c1)NC(=O)CCCN [(Ab) b B B ram] as the molecule, how does the EC50 read?
**A.** 2 nM

Same assay, conditions: read-out: “Pit” Cell EC50; Table II, prior art compounds; GH release, 15 min incubation

**Q.** How did the EC50 turn out when C[C@H](N)C(=O)N[C@@H](Cc1c[nH]cn1)C(=O)N[C@H](Cc1ccc2ccccc2c1)C(=O)N[C@@H](C)C(=O)N[C@@H](Cc1c[nH]c2ccccc12)C(=O)N[C@H](Cc1ccccc1)C(=O)N[C@@H](CCCCN)C(N)=O [GHRP 1, Ala-His-D βNal-Ala-Trp-D Phe-Lys-NH2, reference compound] (H-AH[d2Nal]AW[dF]K-NH2) was run?
**A.** 1.4 nM
